Results on 23 molecules are retold here after patent US12157730B2, “Heteroaryl derivative, method for producing same, and pharmaceutical composition comprising same as effective component” (VORONOI INC., priority 2019, dated 2024).

The experiment addresses T1, Ba/F3 cell EGFR Exon20 ins NPH (Homo sapiens, UniProt P00533, INS773NPH).
T1 construct: expressed in transfected cells; host or cells: Ba/F3
As to the kind of experiment: Ba/F3 cell proliferation suppression, EGFR Exon20 ins NPH. Type of experiment: cell-based. To be noted: GI50 class; Ba/F3 cell line with NPH inserted at Exon20 of EGFR; 72 hours. The procedure, abridged: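 Cells were seeded 24 h before dosing and then treated for 72 hours with compound at final concentrations of 0.3 nM to 50 um. Live cells were measured by CellTiter-Glo luminescence, and GI50 values were derived from growth ratio relative to control across three repeats.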
With `C=CC(=O)Nc1cc(Nc2cc(N3OCC[C@@H]3c3ccccc3)ncn2)c(OC)cc1N1CCC(N2CCN(C3CC3)CC2)CC1` [Example 56, N-(2-(4-(4-cyclopropylpiperazine-1-yl)piperidine-1-yl)-4-methoxy-5-((6-((R)-3-phenylisoxazolidine-2-yl)pyrimidine-4-yl)amino)phenyl) acrylamide], the “Ba/F3 (NPH) Activity” value was “A (GI50 < 50 nM)”.

As to `C=CC(=O)Nc1cc(Nc2cc(N3OCC[C@@H]3c3cc(F)cc(F)c3)ncn2)c(OC)cc1N1CCC(N2C[C@H]3CC[C@@H](C2)N3C2CC2)CC1` [Example 115, N-(2-(4-((1R,5S)-8-cyclopropyl-3,8-diazabicyclo[3.2.1]octan-3-yl)piperidine-1-yl)-5-((6-((R)-3-(3,5-difluorophenyl)isoxazolidine-2-yl)pyrimidine-4-yl)amino)-4-methoxyphenyl) acrylamide], the “Ba/F3 (NPH) Activity” value is “A (GI50 < 50 nM)”.

With `C#Cc1cccc([C@H]2CCON2c2cc(Nc3cc(NC(=O)C=C)c(N4CCC(N5CCN(C6CCC6)CC5)CC4)cc3OC)ncn2)c1` [Example 191, N-(2-(4-(4-cyclobutylpiperazine-1-yl)piperidine-1-yl)-5-((6-((R)-3-(3-ethynylphenyl)isoxazolidine-2-yl)pyrimidine-4-yl)amino)-4-methoxyphenyl) acrylamide], the “Ba/F3 (NPH) Activity” value was “A (GI50 < 50 nM)”.

As for `C=CC(=O)Nc1cc(Nc2cc(N3OCC[C@H]3Cc3ccccc3)ncn2)c(OC)cc1N1CCN(C2CCOCC2)CC1` [compound 975, N-(5-((6-((R)-3-benzylisoxazolidine-2-yl)pyrimidine-4-yl)amino)-4-methoxy-2-(4-(tetrahydro-2H-pyran-4-yl)piperazine-1-yl)phenyl)acrylamide], the “Ba/F3 (NPH) Activity” value is reported as “C (500 nM ≤ GI50 < 5000 nM)”.

For `C=CC(=O)Nc1cc(Nc2cc(N3OCC[C@@H]3c3cccc(Cl)c3Cl)ncn2)c(OC)cc1N(C)CCN(C)C` [compound 516, N-(5-((6-((R)-3-(2,3-dichlorophenyl)isoxazolidine-2-yl)pyrimidine-4-yl)amino)-2-((2-(dimethylamino)ethyl)(methyl)amino)-4-methoxyphenyl) acrylamide], the “Ba/F3 (NPH) Activity” value is listed as “A (GI50 < 50 nM)”.

In the case of `C=CC(=O)Nc1cc(Nc2cc(N3OCC[C@@H]3c3cccc(Cl)c3)ncn2)c(OC)cc1N1CCC(N2CCN(C(C)=O)CC2)CC1` [compound 471, N-(2-(4-(4-acetylpiperazine-1-yl)piperidine-1-yl)-5-((6-((R)-3-(3-chlorophenyl)isoxazolidine-2-yl)pyrimidine-4-yl)amino)-4-methoxyphenyl) acrylamide], the “Ba/F3 (NPH) Activity” value is on record as “A (GI50 < 50 nM)”.

With `C=CC(=O)Nc1cc(Nc2cc(N3OCC[C@@H]3c3cc(F)cc(F)c3)ncn2)c(OC)cc1N1CCC(N2CCN(C3CC3)C(C)(C)C2)CC1` [Example 106, N-(2-(4-(4-cyclopropyl-3,3-dimethylpiperazine-1-yl)piperidine-1-yl)-5-((6-((R)-3-(3,5-difluorophenyl)isoxazolidine-2-yl)pyrimidine-4-yl)amino)-4-methoxyphenyl) acrylamide], the “Ba/F3 (NPH) Activity” value was “A (GI50 < 50 nM)”.

Regarding `C=CC(=O)Nc1cc(Nc2cc(N3OCC[C@@H]3c3cccc(F)c3)ncn2)c(OC)cc1N1CCOCC1` [compound 840, N-(5-((6-((R)-3-(3-fluorophenyl)isoxazolidine-2-yl)pyrimidine-4-yl)amino)-4-methoxy-2-morpholinophenyl) acrylamide], the “Ba/F3 (NPH) Activity” value was “A (GI50 < 50 nM)”.

As for `C=CC(=O)Nc1cc(Nc2cc(N3OCC[C@@H]3Cc3cccc(N(C)C)c3)ncn2)c(OC)cc1N1CCC(N2CCN(C3CC3)[C@@H](C)C2)CC1` [compound 1045, N-(2-(4-((S)-4-cyclopropyl-3-methylpiperazine-1-yl)piperidine-1-yl)-5-((6-((S)-3-(3-(dimethylamino)benzyl)isoxazolidine-2-yl)pyrimidine-4-yl)amino)-4-methoxyphenyl) acrylamide], the “Ba/F3 (NPH) Activity” value is “B (50 nM ≤ GI50 < 500 nM)”.

As to `C=CC(=O)Nc1cc(Nc2cc(N3OCC[C@@H]3c3ccc(Cl)cc3F)ncn2)c(OC)cc1N(C)CCN(C)C` [compound 371, N-(5-((6-((R)-3-(4-chloro-2-fluorophenyl)isoxazolidine-2-yl)pyrimidine-4-yl)amino)-2-((2-(dimethylamino)ethyl)(methyl)amino)-4-methoxyphenyl) acrylamide], the “Ba/F3 (NPH) Activity” value is listed as “A (GI50 < 50 nM)”.

In the case of `C=CC(=O)Nc1cc(Nc2cc(N3OCC[C@@H]3c3cccc(Cl)c3F)ncn2)c(OC)cc1N1CCC(N2C[C@H]3CC[C@@H](C2)O3)CC1` [compound 322, N-(2-(4-((1R,5S)-8-oxa-3-azabicyclo[3.2.1]octan-3-yl)piperidine-1-yl)-5-((6-((R)-3-(3-chloro-2-fluorophenyl)isoxazolidine-2-yl)pyrimidine-4-yl)amino)-4-methoxyphenyl) acrylamide], the “Ba/F3 (NPH) Activity” value is “A (GI50 < 50 nM)”.

Consider `C=CC(=O)Nc1cc(Nc2cc(N3OCC[C@@H]3c3cccc(Cl)c3Cl)ncn2)c(OC)cc1N1CCN(CCN(C)C)CC1` [compound 566, N-(5-((6-((R)-3-(2,3-dichlorophenyl)isoxazolidine-2-yl)pyrimidine-4-yl)amino)-2-(4-(2-(dimethylamino)ethyl)piperazine-1-yl)-4-methoxyphenyl) acrylamide], for which the “Ba/F3 (NPH) Activity” value is listed as “B (50 nM ≤ GI50 < 500 nM)”.

On to `C=CC(=O)Nc1cc(Nc2cc(N3OCC[C@@H]3c3cc(F)cc(F)c3)ncn2)cc(N2CCN(C)CC2)c1` [compound 633, N-(3-((6-((R)-3-(3,5-difluorophenyl)isoxazolidine-2-yl)pyrimidine-4-yl)amino)-5-(4-methylpiperazine-1-yl)phenyl)acrylamide], for which the “Ba/F3 (NPH) Activity” value is “B (50 nM ≤ GI50 < 500 nM)”.

In the case of `C=CC(=O)Nc1cc(Nc2cc(N3OCC[C@@H]3c3cccc(OC)c3)ncn2)c(OC)cc1N1CCC(N2CC[C@H](N(C)C)C2)CC1` [compound 729, N-(2-(4-((S)-3-(dimethylamino)pyrolidine-1-yl)piperidine-1-yl)-4-methoxy-5-((6-((R)-3-(3-methoxyphenyl)isoxazolidine-2-yl)pyrimidine-4-yl)amino)phenyl)acrylamide], the “Ba/F3 (NPH) Activity” value was “A (GI50 < 50 nM)”.

As to `C=CC(=O)Nc1cc(Nc2cc(N3OCC[C@@H]3c3cccc(C)c3F)ncn2)c(OC)cc1N1CCN(CC)CC1` [compound 847, N-(2-(4-ethylpiperazine-1-yl)-5-((6-((R)-3-(2-fluoro-3-methylphenyl)isoxazolidine-2-yl)pyrimidine-4-yl)amino)-4-methoxyphenyl) acrylamide], the “Ba/F3 (NPH) Activity” value was “A (GI50 < 50 nM)”.

On to `C=CC(=O)Nc1cc(Nc2cc(N3OCC[C@@H]3c3ccc(F)c(F)c3F)ncn2)c(OC)cc1N1CCC(N2CCC(N(C)C)CC2)CC1` [compound 656, N-(2-(4-(dimethylamino)-[1,4'-bipiperidine]-1'-yl)-4-methoxy-5-((6-((R)-3-(2,3,4-trifluorophenyl)isoxazolidine-2-yl)pyrimidine-4-yl)amino)phenyl)acrylamide], for which the “Ba/F3 (NPH) Activity” value is “B (50 nM ≤ GI50 < 500 nM)”.

Turning to `C=CC(=O)Nc1cc(Nc2cc(N3OCC[C@@H]3c3ccc(Cl)c(Cl)c3F)ncn2)c(OC)cc1N1CCC(N2CCN(C3CCC3)CC2)CC1` [Example 74, N-(2-(4-(4-cyclobutylpiperazine-1-yl)piperidine-1-yl)-5-((6-((R)-3-(3,4-dichloro-2-fluorophenyl)isoxazolidine-2-yl)pyrimidine-4-yl)amino)-4-methoxyphenyl) acrylamide], the “Ba/F3 (NPH) Activity” value is “B (50 nM ≤ GI50 < 500 nM)”.

In the case of `C=CC(=O)Nc1cc(Nc2cc(N3OCC[C@@H]3Cc3cccc(N(C)C)c3)ncn2)c(OC)cc1N1CCC(N2CCN(C3CC3)CC2)CC1` [compound 1044, N-(2-(4-(4-cyclopropylpiperazine-1-yl)piperidine-1-yl)-5-((6-((S)-3-(3-(dimethylamino)benzyl)isoxazolidine-2-yl)pyrimidine-4-yl)amino)-4-methoxyphenyl) acrylamide], the “Ba/F3 (NPH) Activity” value is listed as “B (50 nM ≤ GI50 < 500 nM)”.

Take `C=CC(=O)Nc1cc(Nc2cc(N3OCC[C@@H]3c3cccc(C#N)c3)ncn2)c(OC)cc1N1CCC(N2CCOCC2)CC1` [compound 400, N-(5-((6-((R)-3-(3-cyanophenyl)isoxazolidine-2-yl)pyrimidine-4-yl)amino)-4-methoxy-2-(4-morpholinopiperidine-1-yl)phenyl)acrylamide]: the “Ba/F3 (NPH) Activity” value is “A (GI50 < 50 nM)”.

In the case of “N-(5-((6-((R)-3-(4- chloro-3-fluorophenyl) isoxazolidine-2-yl) pyrimidine-4-yl)amino)- 4-methoxy-2-((R)-3- morpholinopyrolidine- 1-yl)phenyl)acrylamide [compound 419]”, the “Ba/F3 (NPH) Activity” value is recorded as “A (GI50 < 50 nM)”.

In the case of `C=CC(=O)Nc1cc(Nc2cc(N3OCC[C@@H]3c3ccc(C)nc3)ncn2)c(OC)cc1N1CC[C@H](N(C)C)C1` [Example 222, N-(2-((S)-3-(dimethylamino)pyrolidine-1-yl)-4-methoxy-5-((6-((R)-3-(6-methylpyridine-3-yl)isoxazolidine-2-yl)pyrimidine-4-yl)amino)phenyl)acrylamide], the “Ba/F3 (NPH) Activity” value was “B (50 nM ≤ GI50 < 500 nM)”.

For the molecule `C=CC(=O)Nc1cc(Nc2cc(N3OCC[C@@H]3c3cccc(C#N)c3)ncn2)c(OC)cc1N1CCC(N(C)C)CC1` [compound 394, N-(5-((6-((R)-3-(3-cyanophenyl)isoxazolidine-2-yl)pyrimidine-4-yl)amino)-2-(4-(dimethylamino)piperidine-1-yl)-4-methoxyphenyl) acrylamide], the “Ba/F3 (NPH) Activity” value is “A (GI50 < 50 nM)”.

Consider `C=CC(=O)Nc1cc(Nc2cc(N3OCC[C@@H]3c3ccc(F)cc3)ncn2)c(OC)cc1N1CCC(N2CCN(C3CC3)CC2)CC1` [Example 66, N-(2-(4-(4-cyclopropylpiperazine-1-yl)piperidine-1-yl)-5-((6-((R)-3-(4-fluorophenyl)isoxazolidine-2-yl)pyrimidine-4-yl)amino)-4-methoxyphenyl) acrylamide], for which the “Ba/F3 (NPH) Activity” value is listed as “A (GI50 < 50 nM)”.
